Activity calls are given as the source filed them. The calls are words filed in the database; no cut-off is given here. Peptide text beside a SMILES is read from it. * marks the point of attachment. X1 = C[N+]1=C(/C=C/C=C2\N(CCCCCC(=O)*)c3ccccc3C2(C)C)C(C)(C)c2ccccc21
How the values were obtained:
Cerebral artery [1] = assay: Vaso-constriction activity in male wistar rat middle cerebral artery assessed as arterial contraction at 1 uM in presence of losartan; type: functional, tissue-based
[2] = target: T1, Type-1 angiotensin II receptor (Homo sapiens) (UniProt P30556); assay: (§1) Agonist activity at Flag-tagged AT1R (unknown origin) extracted from HEK293T cell membrane co expressing YPET-ARRB1 assessed as beta-arrestin 1 recruitment using NanoGlo as substrate preincubated for 30 mins followed by substrate addition for 10 mins by BRET assay; type: functional, cell membranes
T1 sequence (whole entry): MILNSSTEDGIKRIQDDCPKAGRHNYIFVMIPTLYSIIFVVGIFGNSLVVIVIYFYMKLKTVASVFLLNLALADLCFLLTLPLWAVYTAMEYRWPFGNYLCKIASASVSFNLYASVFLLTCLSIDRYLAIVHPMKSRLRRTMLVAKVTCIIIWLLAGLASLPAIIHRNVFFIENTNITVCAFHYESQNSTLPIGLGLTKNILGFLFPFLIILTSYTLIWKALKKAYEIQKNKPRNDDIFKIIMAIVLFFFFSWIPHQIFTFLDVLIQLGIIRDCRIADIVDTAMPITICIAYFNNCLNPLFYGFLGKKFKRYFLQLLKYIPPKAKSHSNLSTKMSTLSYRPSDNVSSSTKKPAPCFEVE

[3] = target: T1, Type-1 angiotensin II receptor (Homo sapiens); assay: Induction of human NLuc-tagged AT1R (unknown origin) internalization in HEK293 cells co expressing venus-MP using NanoGlo as substrate preincubated for 30 mins followed by substrate addition for 10 mins by BRET assay; type: functional
[4] = target: T1, Type-1 angiotensin II receptor (Homo sapiens); assay: (§2) Agonist activity at Flag-tagged AT1R (unknown origin) extracted from HEK293 cell membrane co expressing YPET-ARRB2 assessed as beta-arrestin 2 recruitment using NanoGlo as substrate preincubated for 30 mins followed by substrate addition for 10 mins by BRET assay; type: functional, cell membranes
[5] = Fluorescence property of compound in HEPES buffer assessed as quantum yield; type: physicochemical
Cerebral artery [6] = assay: Vaso-constriction activity in male wistar rat middle cerebral artery assessed as arterial contraction at 1 uM; type: functional, tissue-based
Cerebral artery [7] = assay: Vaso-constriction activity in male wistar rat middle cerebral artery assessed as arterial contraction at 10 nM; type: functional, tissue-based
[8] = target: T2, Type-2 angiotensin II receptor (Homo sapiens) (UniProt P50052); assay: Binding affinity to human GFP-tagged AT2R extracted from HEK293 cell membrane assessed as colocalization of AT2R in plasma membrane at 30 nM incubated for 30 mins by epifluorescence microscopic analysis; type: cell membranes; conditions: filed as agonist
T2 sequence (whole entry): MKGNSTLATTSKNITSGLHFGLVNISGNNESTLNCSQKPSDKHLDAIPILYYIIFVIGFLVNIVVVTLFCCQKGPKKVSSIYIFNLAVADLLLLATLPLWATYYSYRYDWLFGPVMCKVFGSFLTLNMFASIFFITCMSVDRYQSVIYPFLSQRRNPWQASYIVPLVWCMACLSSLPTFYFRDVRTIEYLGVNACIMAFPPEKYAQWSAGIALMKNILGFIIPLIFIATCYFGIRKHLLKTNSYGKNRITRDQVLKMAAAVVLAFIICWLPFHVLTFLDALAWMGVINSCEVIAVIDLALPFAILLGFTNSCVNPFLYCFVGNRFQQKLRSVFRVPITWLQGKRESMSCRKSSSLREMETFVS

[9] = target: T1, Type-1 angiotensin II receptor (Homo sapiens); assay: Binding affinity to human GFP-tagged AT1R (unknown origin) extracted from HEK293 cell membrane assessed as colocalization of AT1R in endocytic vesicles at 100 nM incubated for 30 mins by epifluorescence microscopic analysis; type: cell membranes; conditions: filed as agonist
[10] = target: T3, Type-2 angiotensin II receptor (Homo sapiens, UniProt P50052); assay: Binding affinity to human AT2R extracted from HEK293T cell membrane assessed as inhibition constant in presence of [125I][Sar1 Ile8]-angiotensin II by competitive radioligand binding assay; type: cell membranes
T3 sequence (P50052 whole entry): T2 sequence (whole entry)

[11] = target: T1, Type-1 angiotensin II receptor (Homo sapiens); assay: Agonist activity at AT1R (unknown origin) extracted from HEK293 cell membrane coexpressing NLuc and Venus-miniG assessed as miniGq protein recruitment at 1 uM using NanoGlo as substrate preincubated for 30 mins followed by substrate addition for 10 mins by BRET assay; type: functional, cell membranes; conditions: time 40.0 min
[12] = target: T2, Type-2 angiotensin II receptor (Homo sapiens); assay: Binding affinity to GFP-tagged AT2R (unknown origin) extracted from HEK293 cell membrane assessed as increase in median red fluorescence intensity incubated for 15 mins by flow cytometric analysis; type: cell membranes; conditions: filed as agonist
[13] = target: T1, Type-1 angiotensin II receptor (Homo sapiens); assay: Agonist activity at Flag-tagged AT1R (unknown origin) extracted from HEK293 cell membrane assessed as increase in intracellular calcium at >100 nM incubated for 30 mins by microplate reader analysis; type: functional, cell membranes; conditions: filed as agonist
Homo sapiens = species on record: Homo sapiens; assay: Selectivity index, ratio of Ki for binding affinity to human AT1R extracted from HEK293T cell membrane in presence of [125I][Sar1 Ile8]-angiotensin II by competitive radioligand binding assay to Ki for binding affinity to human AT2R extracted from HEK293T cell membrane in presence of [125I][Sar1 Ile8]-angiotensin II by competitive radioligand binding assay
[14] = target: T4, Type-1 angiotensin II receptor (Homo sapiens, UniProt P30556); assay: Binding affinity to human AT1R extracted from HEK293T cell membrane assessed as inhibition constant in presence of [125I][Sar1 Ile8]-angiotensin II by competitive radioligand binding assay; type: cell membranes
T4 sequence (P30556 whole entry): T1 sequence (whole entry)

[15] = target: T2, Type-2 angiotensin II receptor (Homo sapiens); assay: Binding affinity to human GFP-tagged AT2R extracted from HEK293 cell membrane assessed as colocalization of AT2R in plasma membrane at 50 nM incubated for 30 mins by epifluorescence microscopic analysis; type: cell membranes; conditions: filed as agonist
Cerebral artery [16] = assay: Vaso-constriction activity in male wistar rat middle cerebral artery assessed as arterial contraction; type: functional, tissue-based
[17] = target: T1, Type-1 angiotensin II receptor (Homo sapiens); assay: as §1, with “HEK293” for “HEK293T”, “recruitment at 1 uM by measuring maximum efficacy” for “recruitment”; type: functional, cell membranes; conditions: filed as agonist
[18] = target: T1, Type-1 angiotensin II receptor (Homo sapiens); assay: Binding affinity to human GFP-tagged AT1R (unknown origin) extracted from HEK293 cell membrane assessed as colocalization of AT1R in endocytic vesicles at 50 nM incubated for 30 mins by epifluorescence microscopic analysis; type: cell membranes; conditions: filed as agonist
[19] = target: T1, Type-1 angiotensin II receptor (Homo sapiens); assay: as §2, with “recruitment at 1 uM by measuring maximum efficacy” for “recruitment”; type: functional, cell membranes; conditions: filed as agonist

CC[C@H](C)[C@H](NC(=O)[C@@H](NC(=O)[C@H](CC(=O)O)NC(=O)[C@@H]1CCCN1C(=O)[C@H](Cc1c[nH]cn1)NC(=O)[C@H](Cc1ccccc1)NC(=O)[C@H](Cc1ccc(O)cc1)NC(=O)CCCCCN1/C(=C\C=C\C2=[N+](C)c3ccccc3C2(C)C)C(C)(C)c2ccccc21)C(C)C)C(=O)N[C@@H](CCCNC(=N)N)C(=O)O (X1-YFHPDVIR-OH)
Activity (Cerebral artery [1]): Active | Activity ([2]; HEK293): inactive | Activity [3]: inactive | Activity [4]: inactive | Activity [5]: 0.101

CC[C@H](C)[C@H](NC(=O)[C@H](Cc1ccc(O)cc1)NC(=O)[C@@H](NC(=O)[C@H](CCCNC(=N)N)NC(=O)[C@H](CC(=O)O)NC(=O)CCOCCOCCNC(=O)CCCCCN1/C(=C\C=C\C2=[N+](C)c3ccccc3C2(C)C)C(C)(C)c2ccccc21)C(C)C)C(=O)N[C@@H](Cc1c[nH]cn1)C(=O)N1CCC[C@H]1C(=O)N[C@@H](Cc1ccccc1)C(=O)O
Activity (Cerebral artery [6]): Active | Activity [5]: 0.068 | Activity (Cerebral artery [7]): Active

CC[C@H](C)[C@H](NC(=O)[C@H](Cc1ccc(O)cc1)NC(=O)[C@@H](NC(=O)[C@H](CCCNC(=N)N)NC(=O)CN(C)C(=O)CCCCCN1/C(=C\C=C\C2=[N+](C)c3ccccc3C2(C)C)C(C)(C)c2ccccc21)C(C)C)C(=O)N[C@@H](Cc1c[nH]cn1)C(=O)N1CCC[C@H]1C(=O)N[C@@H](C)C(=O)O
Activity [8]: Active | Activity (Cerebral artery [6]): Active | Activity [9]: Active; Scarce Colocalization Of Compound Was Observed | Ki ([10]; read-out: Ki): 4.23 nM | Ki ([10]; read-out: pKi (converted)): 3.31 nM | Activity ([11]; filed as agonist): Active | Activity [5]: 0.076 | Activity [12]: Active | Activity [13]: Active | Ratio Ki (Homo sapiens): 1280 | Ki ([14]; read-out: Ki): 5430 nM | Ki ([14]; read-out: pKi (converted)): 5130 nM

CC[C@H](C)[C@H](NC(=O)[C@H](Cc1ccc(O)cc1)NC(=O)[C@@H](NC(=O)[C@H](CCCN=C(N)N)NC(=O)CNC)C(C)C)C(=O)N[C@@H](Cc1c[nH]cn1)C(=O)N1CCC[C@H]1C(=O)N[C@@H](C)C(=O)O
Activity ([2]; HEK293, filed as agonist): Dose-dependent-effect | Activity [15]: Active | Activity ([3]; filed as agonist): Active | Activity (Cerebral artery [16]): inactive | Emax [17]: 0.031 a.u. | Activity [11]: inactive | Activity ([4]; filed as agonist): Dose-dependent-effect | Activity [18]: Active | Emax [19]: 0.043 a.u.

H-YFHPDVIR-OH
Activity ([2]; HEK293): inactive | Activity [3]: inactive | Activity (Cerebral artery [16]): inactive | Activity [4]: inactive

Source: ChEMBL document CHEMBL6078647 (J Med Chem, 2024)
